# In ChEMBL document CHEMBL2203015, “Synthesis and biological evaluation of 5-aryloxypyrazole derivatives bearing a rhodanine-3-aromatic acid as potential antimicrobial agents” (Bioorg Med Chem Lett, 2012):
# Experiments:
# Format in all cases: functional
# Staphylococcus aureus [1] = test: Antibacterial activity against quinolone-resistant Staphylococcus aureus CCARM 3519 incubated for 24 hrs serial dilution method; conditions: CCARM 3519, 24 h
# Staphylococcus aureus [2] = test: Antibacterial activity against quinolone-resistant Staphylococcus aureus CCARM 3505 incubated for 24 hrs serial dilution method; conditions: CCARM 3505, 24 h
# Staphylococcus aureus [3] = test: Antibacterial activity against multidrug-resistant Staphylococcus aureus CCARM 3506 incubated for 24 hrs serial dilution method; conditions: CCARM 3506, 24 h
# Staphylococcus aureus [4] = test: Antibacterial activity against multidrug-resistant Staphylococcus aureus CCARM 3167 incubated for 24 hrs serial dilution method; conditions: CCARM 3167, 24 h
# Escherichia coli = test: Antibacterial activity against Escherichia coli 1356 incubated for 24 hrs serial dilution method; conditions: Escherichia coli, 1356, 24 h
# Staphylococcus aureus [5] = test: Antibacterial activity against Staphylococcus aureus KCTC 503 incubated for 24 hrs serial dilution method; conditions: KCTC 503, 24 h
# Staphylococcus aureus [6] = test: Antibacterial activity against Staphylococcus aureus KCTC 209 incubated for 24 hrs serial dilution method; conditions: KCTC 209, 24 h
# Staphylococcus aureus [7] = test: Antibacterial activity against Staphylococcus aureus RN 4220 incubated for 24 hrs serial dilution method; conditions: RN 4220, 24 h
Compound,MIC (Staphylococcus aureus [1]) [µg/mL],MIC (Staphylococcus aureus [2]) [µg/mL],MIC (Staphylococcus aureus [3]) [µg/mL],MIC (Staphylococcus aureus [4]) [µg/mL],MIC (Escherichia coli) [µg/mL],MIC (Staphylococcus aureus [5]) [µg/mL],MIC (Staphylococcus aureus [6]) [µg/mL],MIC (Staphylococcus aureus [7]) [µg/mL]
Cc1nn(-c2ccccc2)c(Oc2cccc(C(F)(F)F)c2)c1/C=C1\SC(=S)N([C@@H](Cc2c[nH]c3ccccc23)C(=O)O)C1=O,8,4,4,4,> 64,> 64,> 64,4
Cc1nn(-c2ccccc2)c(Oc2ccc(F)cc2)c1/C=C1\SC(=S)N([C@@H](Cc2ccc(O)cc2)C(=O)O)C1=O,–,–,–,–,> 64,> 64,> 64,> 32
Cc1nn(-c2ccccc2)c(Oc2cccc(C(F)(F)F)c2)c1/C=C1\SC(=S)N([C@@H](Cc2ccc(O)cc2)C(=O)O)C1=O,32,32,16,16,> 64,> 64,> 64,16
COc1ccccc1Oc1c(/C=C2\SC(=S)N([C@@H](Cc3c[nH]c4ccccc34)C(=O)O)C2=O)c(C)nn1-c1ccccc1,8,8,8,8,> 64,> 64,> 64,16
COc1ccccc1Oc1c(/C=C2\SC(=S)N([C@@H](Cc3ccc(O)cc3)C(=O)O)C2=O)c(C)nn1-c1ccccc1,–,–,–,–,> 64,> 64,> 64,> 32
Cc1nn(-c2ccccc2)c(Oc2cccc(Cl)c2)c1/C=C1\SC(=S)N([C@@H](Cc2c[nH]c3ccccc23)C(=O)O)C1=O,4,4,4,2,> 64,> 64,> 64,4
Cc1nn(-c2ccccc2)c(Oc2ccc3ccccc3c2)c1/C=C1\SC(=S)N([C@@H](Cc2c[nH]c3ccccc23)C(=O)O)C1=O,2,2,2,2,> 64,> 64,> 64,2
Cc1ccc(Oc2c(/C=C3\SC(=S)N([C@@H](Cc4ccc(O)cc4)C(=O)O)C3=O)c(C)nn2-c2ccccc2)c(C)c1,8,8,8,8,> 64,> 64,> 64,8
Cc1nn(-c2ccccc2)c(Oc2c(Cl)cccc2Cl)c1/C=C1\SC(=S)N([C@@H](Cc2c[nH]c3ccccc23)C(=O)O)C1=O,4,4,4,4,> 64,> 64,> 64,4
Cc1nn(-c2ccccc2)c(Oc2ccc(Cl)cc2)c1/C=C1\SC(=S)N([C@@H](Cc2c[nH]c3ccccc23)C(=O)O)C1=O,2,2,2,2,> 64,> 64,> 64,2
Cc1ccccc1Oc1c(/C=C2\SC(=S)N([C@@H](Cc3c[nH]c4ccccc34)C(=O)O)C2=O)c(C)nn1-c1ccccc1,8,8,4,2,> 64,> 64,> 64,8
Cc1onc(-c2ccccc2)c1C(=O)N[C@@H]1C(=O)N2[C@@H]1SC(C)(C)[C@@H]2C(=O)O [OXACILLIN],1,1,> 64,> 64,> 64,1,1,1
COc1ccc(Oc2c(/C=C3\SC(=S)N([C@@H](Cc4ccc(O)cc4)C(=O)O)C3=O)c(C)nn2-c2ccccc2)cc1,–,–,–,–,> 64,> 64,> 64,> 32
Cc1nn(-c2ccccc2)c(Oc2ccccc2Cl)c1/C=C1\SC(=S)N([C@@H](Cc2c[nH]c3ccccc23)C(=O)O)C1=O,4,4,4,2,> 64,> 64,> 64,4
Cc1ccc(Oc2c(/C=C3\SC(=S)N([C@@H](Cc4c[nH]c5ccccc45)C(=O)O)C3=O)c(C)nn2-c2ccccc2)cc1,4,4,2,2,> 64,> 64,> 64,4
Cc1nn(-c2ccccc2)c(Oc2ccc3ccccc3c2)c1/C=C1\SC(=S)N([C@@H](Cc2ccc(O)cc2)C(=O)O)C1=O,8,8,8,8,> 64,> 64,> 64,8
